Series [1] can be described thus: Iron clearing efficiency in non-iron-overloaded, bile duct-cannulated rats (dose response po; po versus sc). To be noted: mean ± SEM. The series is classed as in vivo, male Sprague-Dawley rats. As to the method: Cebus apella monkeys were obtained from World Wide Primates (Miami, Fla.). Male Sprague-Dawley rats were procured from Harlan Sprague-Dawley (Indianapolis, Ind.). Ultrapure salts were obtained from Johnson Matthey Electronics (Royston, UK). All hematological and biochemical studies were performed by Antech Diagnostics (Tampa, Fla.).
Cannulation of Bile Duct in Non-Iron-Overloaded Rats. The cannulation has been described previously in Bergeron, R J et al., Blood 1993, 81, 2166-2173 and Bergeron, R J et al., Ann. N.Y Acad.Sci. 1990, 612, 378-393. Bile samples were collected from male Sprague—Dawley rats (400-450 g) at 3 h intervals for 24 h. The urine sample was taken at 24 h. Sample collection and handling are as previously described. 57'58
Drug Preparation and Administration. In the iron clearing experiments the rats were given a single 50, 150, or 300 mol/kg dose of the drugs po and/or sc. The compounds were administered as a solution in water, 300 mol/kg dose only or (2) as the monosodium salt of the compound of interest (prepared by addition of the free acid to 1 equivalent of NaOH). The chelators were given to the monkeys po and sc at a dose of 150 tmol/kg. The drugs were prepared as for the rats; 2 was given po and sc as a solution in water.
Calculation of Iron Chelator Efficiency. ICE is calculated by dividing the actual amount of iron cleared by a given compound by the theoretical amount that should be cleared. The theoretical iron outputs of the chelators were generated on the basis of a 2:1 ligand:iron complex. The efficiencies in the rats and monkeys were calculated as set forth in Bergeron, R J et al., J. Med. Chem. 1999, 42, 2432-2440. Data are presented as the mean+the standard error of the mean; p-values were generated via a one-tailed Student's 1-test in which the inequality of variances was assumed; and a p-value of <0.05 was considered significant.
Chelator-Induced Iron Clearance and Iron Clearing Efficiency in Non-Iron-Overloaded Rodents Dose Response Studies. Because there is a limited amount of chelatable iron available in an animal at any given time, the iron clearance, and therefore iron-clearing efficiency of a ligand, is saturable. The key to managing this phenomenon can be found in the ferrokinetics and the dose-response properties of the ligand. In this regard, the dose-response along with the corresponding ferrokinetics of each compound given po were evaluated in the non-iron-overloaded, bile duct-cannulated rodent model.
Iron-Clearing Efficiency in Non-Iron-Overloaded Rodents and Iron-Loaded Primates: Oral versus Subcutaneous Administration. A similar protocol was carried out to confirm consistence of results and compare the effects of the compounds across species. Cebus apella monkeys and male Sprague-Dawley rats were used, 3-8 per group.

The conditions of series [2]: iron-loaded Cebus apella, mean ± SEM, cited from earlier work.
For series [3] the following is noted: non-iron-overloaded rats, mean ± SEM, cited from earlier work.
A short description of series [4]: Moisture sorption/desorption (DVS) analysis. The series is classed as physicochemical. The following applies: for total weight gain (water uptake): relative humidity from ~5% to ~95% RH. How it is done: Moisture sorption/desorption (DVS) data were collected on a VTI SGA-100 Vapor Sorption Analyzer. Sorption and desorption data were collected over a range of 5% to 95% relative humidity (RH) at 10% RH intervals under a nitrogen purge. Samples were not dried prior to analysis. Equilibrium criteria used for analysis were less than 0.0100% weight change in 5 minutes, with a maximum equilibration time of 3 hours if the weight criterion was not met. Data were not corrected for the initial moisture content of the samples. NaCl and PVP were used as calibration standards.

Series [5] in a line: Approximate solubility (aliquots of solvent, visual inspection). Type of series: physicochemical. As to the method: Weighed samples were treated with aliquots of test solvents at room temperature. Samples were typically sonicated between additions to facilitate dissolution. Complete dissolution of the test material in each solvent was determined by visual inspection. Solubility was estimated based on the total volume of solvent used to provide complete dissolution. The actual solubility may be greater than the value calculated due to the incremental addition of solvent and kinetics of dissolution of the material. […] The solubility is expressed as […] if dissolution occurred after the addition of first aliquot.
Approximate solubilities are calculated based on the total solvent used to give a solution based on visual inspection. Small aliquots of solvent are added to a weighed sample with agitation. Actual solubilities may be greater because of the volume of the solvent portions utilized or a slow rate of dissolution. Solubilities are reported to the nearest mg/mL. Simulated gastric fluid (SGF) was prepared according to the 2008 USP vol. 1, p 817 except without pepsin.
Approximate solubilities are calculated based on the total solvent used to give a solution based on visual inspection. Small aliquots of solvent are added to a weighed sample with agitation. Actual solubilities may be greater because of the volume of the solvent portions utilized or a slow rate of dissolution.

Series [6] in a line: Relative humidity stress / physical stability on exposure and storage. Type of series: physicochemical. The following applies: ~75% RH stress; listed as magnesium salt candidate. An excerpt: Following isolation, salts were then characterized by one or more standard techniques including but not limited to x-ray powder diffraction (XRPD), single crystal x-ray diffraction (SC-XRD or XRD), nuclear magnetic resonance (NMR), solubility analysis, and stability testing by moisture sorption/desorption stress analysis and differential scanning calorimetry (DSC).

Where two headings read alike, the source gives them in different places.

In the case of `C[C@]1(C(=O)O)CSC(c2ccc(O)cc2O)=N1` [Deferitrin, (S)-2-(2,4-dihydroxyphenyl)-4,5dihydro-4-methyl-4-thiazolecarboxylic acid, reference compound], the “Iron-Clearing Efficiency (%)” value in series [1] (dose 150 μmol/kg) is on record as 1.5 + 1.7%; in series [1] (dose 300 μmol/kg) it was 1.1 ± 0.8%. Also, the results for the “Primate ICE @ 150 μmol/kg” value in series [2] (po) and in series [2] (sc) were 16.8 ± 7.2% and 15.9 ± 2.7%, respectively. Besides, the “Rodent ICE @ 300 μmol/kg” value is recorded as 1.1 ± 0.8% in series [3] (po) and 1.1 ± 0.6% in series [3] (sc).
Consider `COCCOCCOCCOc1ccc(C2=N[C@@](C)(C(=O)O)CS2)c(O)c1` [Magnesium A], for which the “additional weight gain above ~85% RH” value in series [4] (above ~85% RH, listed as Magnesium Salt of (S)-4′-(Oh)-DADFT-PE) is reported as about 20.2 wt %. Also, the “weight gain below ~85% RH” value in series [4] (below ~85% RH, listed as Magnesium Salt of (S)-4′-(Oh)-DADFT-PE) is about 22.0 wt %. The “weight loss on desorption” value in series [4] (between ~95% and ~5% RH, listed as Magnesium Salt of (S)-4′-(Oh)-DADFT-PE) is about 41.2 wt %. Besides, the “total weight gain (water uptake)” value in series [4] (listed as Magnesium Salt of (S)-4′-(Oh)-DADFT-PE) and in series [4] (listed as magnesium salt candidate) was about 42.7 wt % throughout. The “weight loss upon equilibration at ~5% RH” value in series [4] (~5% RH, listed as Magnesium Salt of (S)-4′-(Oh)-DADFT-PE) was about 0.7 wt %. In addition, the solubility (usually the dissolved amount per volume that the medium holds) in series [5] (Water, salts of (S)-4′-(OH)-DADFT-PE (Table 16)) is reported as 60 mg/mL. Also, in series [5] (water, salts of (S)-4′-(OH)-DADFT-PE, listed as magnesium salt candidate), the aqueous solubility (as a rule, the concentration that dissolves in the medium under given conditions) is listed as about 60 mg/mL. The “deliquescence upon ~75% RH stress” value in series [6] is “No apparent deliquescence”.
Turning to `C[C@]1(C(=O)O)CSC(c2ccc(O)cc2O)=N1` [(S)-4′-HO-DADFT], the “Iron-Clearing Efficiency (%)” value worked out at 21.7 ± 3.5% in series [1] (dose 50 μmol/kg), 11.2 ± 4.2% in series [1] (dose 150 μmol/kg) and 5.5 ± 1.9% in series [1] (dose 300 μmol/kg). Besides, the “Primate ICE @ 150 μmol/kg” value in series [2] (sc) is 30.4 ± 7.2%. For the same compound, the “Rodent ICE @ 300 μmol/kg” value in series [3] (po) is 5.5 ± 1.9%; in series [3] (sc) it was 8.7 ± 2.6%.
For the compound `COCCOCCOCCOc1cccc(C2=N[C@@](C)(C(=O)O)CS2)c1O` [(S)-3′-HO-DADFT, (S)-4,5-dihydro-2-[2-hydroxy-3-(3,6,9-trioxadecyloxy)phenyl]-4-methyl-4-thiazolecarboxylic acid], the results for the “Iron-Clearing Efficiency (%)” value in series [1] (dose 50 μmol/kg), in series [1] (dose 150 μmol/kg) and in series [1] (dose 300 μmol/kg) were 20.7 ± 4.4%, 18.7 ± 2.9% and 10.6 ± 4.4%, respectively. Besides, the entries for the “Primate ICE @ 150 μmol/kg” value in series [2] (po) and in series [2] (sc) were 23.0 ± 4.1% and 21.5 ± 3.2%, respectively. Further, the “Rodent ICE @ 300 μmol/kg” value is given as 10.6 ± 4.4% in series [3] (po) and 13.4 ± 4.5% in series [3] (sc).

These data come from US8829197B2, “Salts and polymorphs of desazadesferrithiocin polyether analogues as metal chelation agents” (FerroKin Biosciences, Inc., priority 2008, dated 2014).
